Source: patent US6274704A, “Peptides derived from the heparin binding domain of fibronectin” (Hisamitsu Pharmaceutical Co., Inc., priority 1996, dated 2001)
Ends that are not written are not given here.

tested on: A375 melanoma cell; experiment: Cell adhesion inhibition activity of synthetic peptides (cell suspension includes the peptide); type: cell-based; settings: Concentration 200 μg/ml; adhesion to fibronectin-coated plate, 60 minutes, 0.2% DMSO
Description: The above synthetic peptides were used in this experiment after being dissolved in dimethyl sulfoxide (DMSO: Wako Jyunyaku Co.). To adjust a condition of each experiment to the same, DMSO was added into phosphate buffers containing urea-non-treated Hep 2 fragment, urea-treated Hep 2 fragment, GRGDSP peptide and phosphate buffer itself as a control, respectively. The concentration of DMSO of each experiment was adjusted to 0.2% of final concentration. Inhibition activity against cell adhesion was evaluated according to the method of Fukai et al. (Biochem. Biophys. Res. Commun., 220, 394-398, 1996). In other words, the inhibition activity against cell adhesion of A375 melanoma cell to a plate was measured under the condition with or without the above various synthetic peptides. A375 melanoma cell (American Type Culture Collection: ATCC) was suspended in Dulbecco's modified eagle medium (DMEM: Gibuco Co.) including 0.1% Ovalbumin (Wako Jyunyaku Co.) to be a concentration of 2×10^5 cells/ml. Before preparing cell suspension, a plate was coated with fibronectin according to the method of Miekka et al. Specifically, phosphate buffer containing 10 μg/ml of fibronectin (FN) was prepared and 100 μl of the resultant phosphate buffer containing fibronectin was added into each well of a 96-well plate and then the plate was incubated at 37° C., 5% CO2 concentration for 60 minutes before being washed with phosphate buffer three times. Fibronectin (FN) was purified according to the method of Miekka et al. (Thromb. Res., 27, 1-14, 1982). One hundred (100) μl of the above cell suspension was added into each well of the plate and the plate was incubated at 37° C., 5% CO2 concentration for 60 minutes (Control was without any synthetic peptide). After fixing cells in each well with 5% of formaldehyde (Wako Jyunyaku Co.), non adhesion cells were removed and calls in five areas selected at random in each well were counted by the use of a microscope.
The addition of Hep 2 fragment and each peptide was carried out by the step in which a solution containing Hep 2 fragment or each peptides dissolved with high concentration was added to the cell suspension to obtain the final concentration of Hep 2 fragment or each peptides shown in Table 1.

Substance | Cell adhesion inhibition activity [%]
III 13-2: peptide consisting of SEQ ID NO:5, part of Hep 2 fragment (TGFQVDAVPANGQTPIQRTIKPDVR) | 11
III 13-3: peptide consisting of SEQ ID NO:6, part of Hep 2 fragment (SYTITGLQPGTDYKIYLYTLNDNAR) | 9
III 14-1: peptide consisting of SEQ ID NO:7, part of Hep 2 fragment (NLRFLATTPNSLLVSWQPPRARITGYIIK) | 11
III 12-3: peptide consisting of SEQ ID NO:3, part of Hep 2 fragment (VSVYALKDTLTSRPAQGVVTTLE) | 7
III 13-1: peptide consisting of SEQ ID NO:4, part of Hep 2 fragment (NVSPPRRARVTDATETTITISWRTKTETI) | 4
III 12-1: peptide consisting of SEQ ID NO:1, part of Hep 2 fragment (AIPAPTDLKFTQVTPTSLSAQWTPPNVQLTG) | 11
III 12-2: peptide consisting of SEQ ID NO:2, part of Hep 2 fragment (INLAPDSSSVVVSGLMVATKWE) | 13

tested on: A375 melanoma cell; experiment: Cell adhesion inhibition activity (plate coated with fibronectin solution containing KLH modified synthetic peptide); type: cell-based; settings: Experiment 2, KLH modified peptides coated with fibronectin, FIG. 3
Description: The above various KLH modified synthetic peptides were added to a solution containing fibronectin to obtain a given concentration, then the procedure of Experiment 1 were repeated with the exception that the resultant solution were added into 96-well plate to coat it. The experiment without any synthetic peptide is a control (the concentration of a peptide was 0 μg/m 1).

Substance | cell adhesion inhibition activity (in words)
III 14-2B: peptide of sequence ID NO:11, a part of peptide III 14-2; tested KLH modified (LEPGTEYTIYVIALKNNQK; also: KLH conjugated) | the same strong cell adhesion inhibition activity as that of the peptide III 14-2
III 14-2A: peptide of sequence ID NO:10, a part of peptide III 14-2; tested KLH modified (RPRPGVTEATITG; also: KLH conjugated) | very little cell adhesion inhibition activity
III 14-2C: peptide of sequence ID NO:12, a part of peptide III 14-2; tested KLH modified (YTIYVIALKNNQK; also: KLH conjugated) | the same strong cell adhesion inhibition activity as that of the peptide III 14-2

tested on: melanoma cell; experiment: not given; settings: in vivo; cited from earlier work

Substance | inhibition of experimental metastasis of melanoma cell to lung
GRGDS | inhibits experimental metastasis of melanoma cell to lung
